According to patent US5391540A, “Substituted pyridine compounds” (Rohm and Haas Company, priority 1993, dated 1995):

Legend:
Format in all cases: in vivo
Bygr = experiment: plant injury after spraying emerged plants (Table D); set-up: scale not given here
From the text: (§1) Topsoil (silt loam) is sieved through a screen having 1.27 cm openings. […] This mixture is steam sterilized and then placed in aluminum pans 6.985 cm deep having ten holes in the bottom each 0.635 cm in diameter. The soil mixture is compacted to a depth of 1.27 cm. from the top of the pan. A predetermined number of seeds of each of several dicotyledonous and monocotyledonous annual plant species and/or vegetative propagules for the perennial plant species are placed on the soil and pressed into the soil surface. The seeds and/or vegetative propagules are covered with 1.27 cm of a mixture of 50% topsoil and 50% of a mixture of Canadian sphagnum peat moss, vermiculite and a wetting agent. The pans are then placed on a capillary mat on a greenhouse bench and subirrigated as needed.
(§2) In the following Table D the legends used to identify the plant species are the same as those used in the preceding Table B.

Whez = experiment: as above; set-up: scale not given here
From the text: as §1, §2

Rice = experiment: as above; set-up: scale not given here
From the text: as §1, §2

Grso = experiment: as above; set-up: scale not given here
From the text: as §1, §2

Grft = experiment: as above; set-up: scale not given here
From the text: as §1, §2

Corn = experiment: as above; set-up: scale not given here
From the text: as §1, §2

Cobu = experiment: as above; set-up: scale not given here
From the text: as §1, §2

Sobe = experiment: as above; set-up: scale not given here
From the text: as §1, §2

Mogl = experiment: as above; set-up: scale not given here
From the text: as §1, §2

Dobr = experiment: as above
From the text: Topsoil (silt loam) is sieved through a screen having 1.27 cm openings. In some of the tests the soil was mixed with fertilizer (1225 g/cu. m of 12/5/9 containing isobutylidene diurea), while in other tests the fertilizer was omitted. This mixture is steam sterilized and then placed in aluminum pans 6.985 cm deep having ten holes in the bottom each 0.635 cm in diameter. The soil mixture is compacted to a depth of 1.27 cm. from the top of the pan. A predetermined number of seeds of each of several dicotyledonous and monocotyledonous annual plant species and/or vegetative propagules for the perennial plant species are placed on the soil and pressed into the soil surface. The seeds and/or vegetative propagules are covered with 1.27 cm of a mixture of 50% topsoil and 50% of a mixture of Canadian sphagnum peat moss, vermiculite and a wetting agent. The pans are then placed on a capillary mat on a greenhouse bench and subirrigated as needed. After the plants reach the desired stage (9 to 14 days, 1 to 3 true leaf stage), each pan (except the control pans) is removed to a spraying chamber and sprayed by means of an atomizer, operating at a spray pressure of 170.3 kPa ([…]) at the application rates noted in Table D. In the spray solution is an amount of an emulsifying agent mixture (35% butylamine salt of dodecylbenzenesulfonic acid and 65% tall oil condensed with ethylene oxide in the ratio of 11 mols of ethylene oxide/mol of tall oil) to give a spray solution or suspension. The spray solution or suspension contains a sufficient amount of the candidate chemical in order to give application rates of the active ingredient corresponding to those shown in Table D below while applying a total amount of solution or suspension equivalent to 1870 L/Ha (200 gallons/acre). The pans are returned to the greenhouse and watered as before and the injury to the plants as compared to the control pans is observed at approximately 10-14 days (usually 11 days).
as §2

Barnyardgrass = experiment: Pre-emergent herbicidal activity (Table A); settings: Echinochloa crus-galli, pre-emergence, Bygr, 11.2 kg/ha, 10-14 days, read-out: herbicidal rating (% inhibition)
How it was run: (§3)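 Seeds or vegetative propagules were set on topsoil compacted to 0.95 to 1.27 cm below the pan rim, then covered with soil thoroughly mixed with a known amount of test compound in acetone or water carrier. Ratings follow a scale of percent inhibition per species.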

Downy Brome = experiment: Pre-emergent herbicidal activity (Table A); settings: Bromus tectorum, pre-emergence, Dobr, 11.2 kg/ha, 10-14 days, read-out: herbicidal rating (% inhibition)
How it was run: as §3

Cocklebur = experiment: Pre-emergent herbicidal activity (Table A); settings: Xanthium strumarium, pre-emergence, Cobu, 11.2 kg/ha, 10-14 days, read-out: herbicidal rating (% inhibition)
How it was run: as §3

Velvetleaf = experiment: Pre-emergent herbicidal activity (Table A); settings: Abutilon theophrasti, pre-emergence, Vele, 11.2 kg/ha, 10-14 days, read-out: herbicidal rating (% inhibition)
How it was run: as §3

Yellow Nutsedge = experiment: Pre-emergent herbicidal activity (Table A); settings: Cyperus, pre-emergence, Yens, 11.2 kg/ha, 10-14 days, read-out: herbicidal rating (% inhibition)
How it was run: as §3

Morningglory = experiment: Pre-emergent herbicidal activity (Table A); settings: Ipomoea, pre-emergence, Mogl, 11.2 kg/ha, 10-14 days, read-out: herbicidal rating (% inhibition)
How it was run: as §3

## COC(=O)c1c(OC)nc(C(F)(F)F)c(C(=O)n2ccc(F)n2)c1C1CCC1 [Compound 140, 3-pyridinecarboxylic acid, 4-cyclobuty1-5-[(3-fluoro-1H-pyrazo1-1-yl)carbonyl]-2-methoxy-6-(trifluoromethyl)-, methyl ester]
Bygr; 0.2803 kg/ha
  plant injury rating, Bygr: 0
Bygr; 1.1210 kg/ha
  plant injury rating, Bygr: 0
Bygr; 5.6050 kg/ha
  plant injury rating, Bygr: 0
Whez; 0.2803 kg/ha
  plant injury rating, Whez: 0
Whez; 1.1210 kg/ha
  plant injury rating, Whez: 0
Whez; 5.6050 kg/ha
  plant injury rating, Whez: 0
Rice; 0.2803 kg/ha
  plant injury rating, Rice: 0
Rice; 1.1210 kg/ha
  plant injury rating, Rice: 0
Rice; 5.6050 kg/ha
  plant injury rating, Rice: 0
Grso; 0.2803 kg/ha
  plant injury rating, Grso: 0
Grso; 1.1210 kg/ha
  plant injury rating, Grso: 0
Grso; 5.6050 kg/ha
  plant injury rating, Grso: 0
Grft; 0.2803 kg/ha
  plant injury rating, Grft: 0
Grft; 1.1210 kg/ha
  plant injury rating, Grft: 0
Grft; 5.6050 kg/ha
  plant injury rating, Grft: 0
Corn; 0.2803 kg/ha
  plant injury rating, Corn: 2
Corn; 1.1210 kg/ha
  plant injury rating, Corn: 1
Corn; 5.6050 kg/ha
  plant injury rating, Corn: 2
Cobu; 0.2803 kg/ha
  plant injury rating, Cobu: 1
Cobu; 1.1210 kg/ha
  plant injury rating, Cobu: 3
Cobu; 5.6050 kg/ha
  plant injury rating, Cobu: 3
Sobe; 1.1210 kg/ha
  plant injury rating, Sobe: 2
Sobe; 5.6050 kg/ha
  plant injury rating, Sobe: 2
Mogl; 0.2803 kg/ha
  plant injury rating, Mogl: 2
Mogl; 1.1210 kg/ha
  plant injury rating, Mogl: 2
Mogl; 5.6050 kg/ha
  plant injury rating, Mogl: 2
Dobr; 0.2803 kg/ha
  plant injury rating, Dobr: 0
Dobr; 1.1210 kg/ha
  plant injury rating, Dobr: 0
Dobr; 5.6050 kg/ha
  plant injury rating, Dobr: 0
Barnyardgrass
  inhibition at 11200 g/ha: 75 to 100%
Downy Brome
  inhibition at 11200 g/ha: 75 to 100%
Cocklebur
  inhibition at 11200 g/ha: 0 to 24%
Velvetleaf
  inhibition at 11200 g/ha: 75 to 100%
Yellow Nutsedge
  inhibition at 11200 g/ha: 0 to 24%
Morningglory
  inhibition at 11200 g/ha: 75 to 100%

## COC(=O)c1c(OC)nc(C(F)(F)F)c(C2=NCCCS2)c1CC(C)C [Compound 98, 3-pyridinecarboxylic acid, 5-(5,6-dihydro-4H-1,3-thiazin-2-yl)-2-methoxy-4-(2-methylpropyl)-6-(trifluoromethyl)-, methyl ester]
Bygr; 0.0701 kg/ha
  plant injury rating, Bygr: 0
Bygr; 0.2803 kg/ha
  plant injury rating, Bygr: 0
Bygr; 1.1210 kg/ha
  plant injury rating, Bygr: 0
Bygr; 5.6050 kg/ha
  plant injury rating, Bygr: 0
Whez; 0.0701 kg/ha
  plant injury rating, Whez: 0
Whez; 0.2803 kg/ha
  plant injury rating, Whez: 0
Whez; 1.1210 kg/ha
  plant injury rating, Whez: 0
Whez; 5.6050 kg/ha
  plant injury rating, Whez: 0
Rice; 0.0701 kg/ha
  plant injury rating, Rice: 0
Rice; 0.2803 kg/ha
  plant injury rating, Rice: 0
Rice; 1.1210 kg/ha
  plant injury rating, Rice: 0
Rice; 5.6050 kg/ha
  plant injury rating, Rice: 0
Grso; 0.0701 kg/ha
  plant injury rating, Grso: 0
Grso; 0.2803 kg/ha
  plant injury rating, Grso: 0
Grso; 1.1210 kg/ha
  plant injury rating, Grso: 0
Grso; 5.6050 kg/ha
  plant injury rating, Grso: 1
Grft; 0.0701 kg/ha
  plant injury rating, Grft: 0
Grft; 0.2803 kg/ha
  plant injury rating, Grft: 0
Grft; 1.1210 kg/ha
  plant injury rating, Grft: 0
Grft; 5.6050 kg/ha
  plant injury rating, Grft: 1
Corn; 0.0701 kg/ha
  plant injury rating, Corn: 0
Corn; 0.2803 kg/ha
  plant injury rating, Corn: 0
Corn; 1.1210 kg/ha
  plant injury rating, Corn: 0
Corn; 5.6050 kg/ha
  plant injury rating, Corn: 2
Cobu; 0.0701 kg/ha
  plant injury rating, Cobu: 0
Cobu; 0.2803 kg/ha
  plant injury rating, Cobu: 1
Cobu; 1.1210 kg/ha
  plant injury rating, Cobu: 1
Cobu; 5.6050 kg/ha
  plant injury rating, Cobu: 2
Sobe; 0.0701 kg/ha
  plant injury rating, Sobe: 0
Sobe; 0.2803 kg/ha
  plant injury rating, Sobe: 0
Sobe; 1.1210 kg/ha
  plant injury rating, Sobe: 0
Sobe; 5.6050 kg/ha
  plant injury rating, Sobe: 2
Mogl; 0.0701 kg/ha
  plant injury rating, Mogl: 0
Mogl; 0.2803 kg/ha
  plant injury rating, Mogl: 0
Mogl; 1.1210 kg/ha
  plant injury rating, Mogl: 1
Mogl; 5.6050 kg/ha
  plant injury rating, Mogl: 2
Dobr; 0.0701 kg/ha
  plant injury rating, Dobr: 0
Dobr; 0.2803 kg/ha
  plant injury rating, Dobr: 0
Dobr; 1.1210 kg/ha
  plant injury rating, Dobr: 0
Dobr; 5.6050 kg/ha
  plant injury rating, Dobr: 0
Barnyardgrass
  inhibition at 11200 g/ha: 75 to 100%
Downy Brome
  inhibition at 11200 g/ha: 75 to 100%
Cocklebur
  inhibition at 11200 g/ha: 0 to 24%
Velvetleaf
  inhibition at 11200 g/ha: 75 to 100%
Yellow Nutsedge
  inhibition at 11200 g/ha: 0 to 24%
Morningglory
  inhibition at 11200 g/ha: 75 to 100%

## COC(=O)c1c(OC)nc(C(F)(F)F)c(C(=O)SC)c1C1CCC1 [Compound 137, 3-pyridinecarboxylic acid, 4-cyclobuty1-2-methoxy-5-[(methylthio)carbonyl]-6-(trifluoromethyl)-, methyl ester]
Bygr; 0.2803 kg/ha
  plant injury rating, Bygr: 1
Bygr; 1.1210 kg/ha
  plant injury rating, Bygr: 2
Bygr; 5.6050 kg/ha
  plant injury rating, Bygr: 2
Whez; 0.2803 kg/ha
  plant injury rating, Whez: 0
Whez; 1.1210 kg/ha
  plant injury rating, Whez: 0
Whez; 5.6050 kg/ha
  plant injury rating, Whez: 0
Rice; 0.2803 kg/ha
  plant injury rating, Rice: 0
Rice; 1.1210 kg/ha
  plant injury rating, Rice: 1
Rice; 5.6050 kg/ha
  plant injury rating, Rice: 1
Grso; 0.2803 kg/ha
  plant injury rating, Grso: 0
Grso; 1.1210 kg/ha
  plant injury rating, Grso: 0
Grso; 5.6050 kg/ha
  plant injury rating, Grso: 2
Grft; 0.2803 kg/ha
  plant injury rating, Grft: 2
Grft; 1.1210 kg/ha
  plant injury rating, Grft: 2
Grft; 5.6050 kg/ha
  plant injury rating, Grft: 2
Corn; 0.2803 kg/ha
  plant injury rating, Corn: 0
Corn; 1.1210 kg/ha
  plant injury rating, Corn: 0
Corn; 5.6050 kg/ha
  plant injury rating, Corn: 1
Cobu; 0.2803 kg/ha
  plant injury rating, Cobu: 0
Cobu; 1.1210 kg/ha
  plant injury rating, Cobu: 1
Cobu; 5.6050 kg/ha
  plant injury rating, Cobu: 3
Sobe; 0.2803 kg/ha
  plant injury rating, Sobe: 0
Sobe; 1.1210 kg/ha
  plant injury rating, Sobe: 2
Sobe; 5.6050 kg/ha
  plant injury rating, Sobe: 2
Mogl; 0.2803 kg/ha
  plant injury rating, Mogl: 1
Mogl; 1.1210 kg/ha
  plant injury rating, Mogl: 1
Mogl; 5.6050 kg/ha
  plant injury rating, Mogl: 2
Dobr; 0.2803 kg/ha
  plant injury rating, Dobr: 0
Dobr; 1.1210 kg/ha
  plant injury rating, Dobr: 1
Dobr; 5.6050 kg/ha
  plant injury rating, Dobr: 1
Barnyardgrass
  inhibition at 11200 g/ha: 75 to 100%
Downy Brome
  inhibition at 11200 g/ha: 75 to 100%
Cocklebur
  inhibition at 11200 g/ha: 75 to 100%
Velvetleaf
  inhibition at 11200 g/ha: 75 to 100%
Yellow Nutsedge
  inhibition at 11200 g/ha: 75 to 100%
Morningglory
  inhibition at 11200 g/ha: 75 to 100%
